Experimental data from ChEMBL document CHEMBL1201862, “PubChem BioAssay data set” (2004).
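A five-concentration, 48-hour dose response in 96-well plates underlies each endpoint, interpolated linearly between surrounding concentrations. At the GI50, growth is halved.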 Activity calls are given as the source filed them. Cut-off read from the data, not from the text of the source: active = GI50 up to about 1.1 µM and inactive = higher. Where a SMILES comes first, the peptide text is derived from it. [ ]: non-standard residue; d: D form. The star is where a group is joined. Phe(4-NO2) = N[CH](Cc1ccc([N+](=O)[O-])cc1)C(=O)O; Boc = CC(C)(C)OC(=O)*; OBn = c1ccc(CO*)cc1

Assays:
Assay in all cases: DTP human tumour cell line panel, 48 h
DU-145 = tested on: DU-145
OVCAR-3 = tested on: OVCAR-3
T47D = tested on: T47D
Malme-3M = tested on: Malme-3M
OVCAR-5 = tested on: OVCAR-5
SNB-19 = tested on: SNB-19
PC-3 = tested on: PC-3
SK-MEL-28 = tested on: SK-MEL-28
NCI-H522 = tested on: NCI-H522
MOLT-4 = tested on: MOLT-4
786-0 = tested on: 786-0
HOP-62 = tested on: HOP-62
HCC 2998 = tested on: HCC 2998
UACC-62 = tested on: UACC-62
SNB-75 = tested on: SNB-75
HT-29 = tested on: HT-29
HCT-116 = tested on: HCT-116
SF-295 = tested on: SF-295
MCF7 = tested on: MCF7

Measured: GI50

COC(=O)CCC(NC(=O)OC(C)(C)C)C(=O)NC(Cc1ccc([N+](=O)[O-])cc1)C(=O)NCC(=O)OCc1ccccc1 (centres undefined) (Boc-Glu(OMe)-[Phe(4-NO2)]-Gly-OBn; configuration not given here)
inactive: DU-145 > 100 µM | OVCAR-3 > 100 µM | T47D > 100 µM | Malme-3M > 100 µM | OVCAR-5 > 100 µM | SNB-19 > 55.7 µM | PC-3 > 100 µM | SK-MEL-28 > 100 µM | NCI-H522 > 100 µM | MOLT-4 > 100 µM | 786-0 45.5 µM | HOP-62 27.8 µM | HCC 2998 99.8 µM | UACC-62 > 31.6 µM | SNB-75 18.6 µM | HT-29 > 100 µM | HCT-116 > 100 µM | SF-295 > 48.5 µM | MCF7 > 100 µM

CCOC(=O)[C@@H]1C2C(=C[C@H]3[C@H]1C(=O)N1CCCC[C@H]31)CCCN2C(=O)OCc1ccccc1 (some centres undefined)
inactive: DU-145 39.1 µM | OVCAR-3 30.1 µM | T47D 29.3 µM | Malme-3M 28.5 µM | OVCAR-5 76.4 µM | SNB-19 > 100 µM | PC-3 28.1 µM | SK-MEL-28 59.7 µM | NCI-H522 18.5 µM | MOLT-4 14.3 µM | 786-0 54.5 µM | HOP-62 42.5 µM | HCC 2998 15.1 µM | UACC-62 17.4 µM | SNB-75 75.7 µM | HT-29 30.3 µM | HCT-116 35.6 µM | SF-295 32.5 µM | MCF7 29.5 µM

C[C@@H](NC(=O)Nc1cccc(C(=O)Nc2cc(C(C)(C)C)ccc2C(=O)O)n1)c1ccccc1
inactive: DU-145 40.2 µM | OVCAR-3 21.4 µM | T47D 46 µM | Malme-3M 46.5 µM | OVCAR-5 33.4 µM | SNB-19 47 µM | PC-3 25.1 µM | SK-MEL-28 41.4 µM | NCI-H522 40.8 µM | MOLT-4 38 µM | 786-0 37.5 µM | HOP-62 28.4 µM | HCC 2998 50.8 µM | UACC-62 19.7 µM | SNB-75 32.1 µM | HT-29 35.5 µM | HCT-116 19.9 µM | SF-295 25.2 µM | MCF7 16.4 µM

Nc1ncnc2c1ncn2CCCNO
inactive: DU-145 > 100 µM | OVCAR-3 > 100 µM | T47D > 100 µM | Malme-3M > 100 µM | OVCAR-5 > 100 µM | SNB-19 > 100 µM | PC-3 > 100 µM | SK-MEL-28 > 100 µM | NCI-H522 > 100 µM | MOLT-4 > 100 µM | 786-0 > 100 µM | HOP-62 > 100 µM | HCC 2998 > 100 µM | UACC-62 > 100 µM | SNB-75 > 100 µM | HT-29 > 100 µM | HCT-116 > 100 µM | SF-295 > 100 µM | MCF7 > 100 µM

O=C1c2ccccc2C(=O)N1CCCCCCNOCCCN1C(=O)c2ccccc2C1=O
inactive: DU-145 51.8 µM | OVCAR-3 23.7 µM | T47D 16.8 µM | Malme-3M 41.3 µM | OVCAR-5 > 100 µM | SNB-19 78.3 µM | PC-3 28.3 µM | SK-MEL-28 55.3 µM | NCI-H522 26.5 µM | MOLT-4 19.3 µM | 786-0 99.1 µM | HOP-62 45.1 µM | HCC 2998 > 100 µM | UACC-62 19.5 µM | SNB-75 25.1 µM | HT-29 36.6 µM | HCT-116 48.8 µM | SF-295 29.4 µM | MCF7 35.3 µM

NC(=O)SCC(=O)Nc1ccc2cccc3c2c1CC3
inactive: DU-145 > 100 µM | OVCAR-3 31.6 µM | T47D 21.9 µM | Malme-3M > 100 µM | OVCAR-5 17.7 µM | SNB-19 99.3 µM | PC-3 4.4 µM | SK-MEL-28 > 10 µM | NCI-H522 > 100 µM | MOLT-4 19.8 µM | 786-0 18.9 µM | HOP-62 52.1 µM | HCC 2998 62.1 µM | UACC-62 13.7 µM | SNB-75 96.6 µM | HT-29 29.7 µM | HCT-116 15.5 µM | SF-295 21.1 µM | MCF7 11 µM

O=C(Nc1ccc(Cl)c(Cl)c1)N1N=C2c3ccccc3CCC2C1c1ccc(Cl)cc1 (centres undefined)
inactive: DU-145 > 100 µM | OVCAR-3 > 100 µM | T47D > 100 µM | Malme-3M > 100 µM | OVCAR-5 > 100 µM | SNB-19 > 100 µM | PC-3 > 100 µM | SK-MEL-28 > 100 µM | NCI-H522 > 100 µM | MOLT-4 > 100 µM | 786-0 > 100 µM | HOP-62 > 100 µM | HCC 2998 > 100 µM | UACC-62 > 100 µM | SNB-75 > 100 µM | HT-29 > 100 µM | HCT-116 > 100 µM | SF-295 > 100 µM | MCF7 > 100 µM

Nc1sc2c(c1C(=O)c1ccc(Cl)c(Cl)c1)CCCC2
inactive: DU-145 > 100 µM | OVCAR-3 60.4 µM | T47D 36.2 µM | Malme-3M 59.4 µM | OVCAR-5 > 100 µM | SNB-19 64.1 µM | PC-3 44.1 µM | SK-MEL-28 > 100 µM | NCI-H522 21 µM | MOLT-4 21.7 µM | 786-0 68.7 µM | HOP-62 83.6 µM | HCC 2998 17.3 µM | UACC-62 92 µM | SNB-75 12.1 µM | HT-29 36.4 µM | HCT-116 40.4 µM | SF-295 37.2 µM | MCF7 18.7 µM

Cc1ccc(S(=O)(=O)NC2=NS(=O)(=O)c3cc(C)c(Cl)cc3S2)cc1
inactive: DU-145 > 100 µM | OVCAR-3 > 100 µM | T47D 70.1 µM | Malme-3M 38.8 µM | OVCAR-5 > 100 µM | SNB-19 75 µM | PC-3 45.5 µM | SK-MEL-28 > 100 µM | NCI-H522 42.3 µM | MOLT-4 39.1 µM | 786-0 > 100 µM | HOP-62 > 100 µM | HCC 2998 82.6 µM | UACC-62 > 100 µM | SNB-75 > 100 µM | HT-29 > 100 µM | HCT-116 88.3 µM | SF-295 70.5 µM | MCF7 85.3 µM

C=CC(=C)CCC(Br)C(C)(C)Cl (centres undefined)
inactive: DU-145 > 100 µM | OVCAR-3 > 100 µM | T47D > 100 µM | Malme-3M > 100 µM | OVCAR-5 > 100 µM | SNB-19 > 100 µM | PC-3 > 100 µM | SK-MEL-28 > 100 µM | NCI-H522 24.3 µM | MOLT-4 85.1 µM | 786-0 > 100 µM | HOP-62 > 100 µM | HCC 2998 > 100 µM | UACC-62 > 100 µM | SNB-75 > 100 µM | HT-29 > 100 µM | HCT-116 > 100 µM | SF-295 > 100 µM | MCF7 46.6 µM

NS(=O)(=O)c1ccc(/N=N/c2nc3nc(O)nc(O)c3[nH]2)cc1
inactive: DU-145 > 100 µM | OVCAR-3 > 100 µM | T47D > 100 µM | Malme-3M > 100 µM | OVCAR-5 > 100 µM | SNB-19 > 100 µM | PC-3 > 100 µM | SK-MEL-28 > 100 µM | NCI-H522 > 100 µM | 786-0 > 100 µM | HOP-62 > 100 µM | HCC 2998 > 100 µM | UACC-62 > 100 µM | SNB-75 > 100 µM | HT-29 > 100 µM | HCT-116 > 100 µM | SF-295 > 100 µM | MCF7 > 100 µM

CC/C(=N/O)c1ccc(Br)s1
inactive: DU-145 > 100 µM | OVCAR-3 > 100 µM | T47D 70 µM | Malme-3M > 100 µM | OVCAR-5 > 100 µM | SNB-19 66.1 µM | PC-3 > 100 µM | SK-MEL-28 > 100 µM | NCI-H522 > 100 µM | MOLT-4 44.7 µM | 786-0 > 100 µM | HOP-62 > 100 µM | HCC 2998 > 100 µM | UACC-62 84.1 µM | SNB-75 67.8 µM | HT-29 > 100 µM | HCT-116 > 100 µM | SF-295 > 100 µM | MCF7 > 100 µM

O=C1/C(=C\c2cccc(Oc3ccccc3)c2)SC(c2ccccc2)N1c1ccc(Cl)cc1 (centres undefined)
inactive: DU-145 65.8 µM | OVCAR-3 41.4 µM | T47D 5.37 µM | Malme-3M 45.6 µM | OVCAR-5 > 39.7 µM | SNB-19 59.4 µM | PC-3 63.2 µM | SK-MEL-28 64.9 µM | NCI-H522 10.2 µM | MOLT-4 20.4 µM | 786-0 52.4 µM | HOP-62 > 57.1 µM | HCC 2998 87.5 µM | UACC-62 9.04 µM | SNB-75 90.4 µM | HT-29 30.8 µM | HCT-116 10.3 µM | SF-295 7.11 µM | MCF7 16.3 µM

CC(=N)OC1CC2CCC1(C)C2(C)C (centres undefined)
inactive: DU-145 > 100 µM | OVCAR-3 > 100 µM | T47D > 100 µM | Malme-3M > 100 µM | OVCAR-5 > 100 µM | PC-3 > 100 µM | SK-MEL-28 > 100 µM | NCI-H522 > 100 µM | MOLT-4 > 100 µM | 786-0 > 100 µM | HOP-62 > 100 µM | HCC 2998 > 100 µM | UACC-62 > 100 µM | SNB-75 > 100 µM | HT-29 > 100 µM | HCT-116 > 100 µM | SF-295 > 100 µM | MCF7 > 100 µM
